The target of series [1] is T1, human m3 receptor subtype (Homo sapiens, UniProt P20309).
T1 construct: expressed in transfected cells
Description: Agonist-induced hydrolysis of inositol phospholipids (PI hydrolysis) in CHO-K1 cells expressing m3. The series is classed as cell-based. The settings on record: for Emax: CHO-K1, 0.5 h, read-out: MAXIMUM RESPONSE BY MUSCARINIC AGONISTS, m3 cells; for EC50: CHO-K1 m3 cells, EC50 calculated as 50% of the maximum response of the PI hydrolysis, read-out: POTENCY ON PI HYDROLYSIS, EC 50, m3 cells. The procedure: (§1) Chinese hamster ovary (CHO-K1) cells stably expressing the human m3 or m5 receptor subtype were grown to confluency in DMEM/F12 medium containing 10% fetal calf serum and 1 unit/ml penicillin/streptomycin in a 37° C. incubator. Activity of muscarinic agonists in these cells was determined by measuring agonist induced hydrolysis of inositol phospholipids. Confluent cells plated at 0.1×10^6 cells/well in a 24-well dish were incubated in medium containing 4 μCi/ml myo-[2-^3 H] inositol overnight. This labels the inositol phospholipids in the cells. The next morning, the cells were washed to remove excess medium and incubated for 10 minutes before and 30 minutes after the addition of various muscarinic agonists in assay buffer containing 10 mM LiCl. The hydrolysis of inositol phospholipids generates inositol phosphates which were extracted and separated on dowex-formate columns and radioactivity determined. Radioactivity of the unhydrolyzed inositol phospholipids was also determined and percent hydrolysis calculated as a measure of agonist activity.
(§2) The EC50 was calculated as 50% of the maximum response of the PI hydrolysis

For series [2], the target named is T2, human m5 receptor subtype (Homo sapiens, UniProt P08912).
T2 construct: expressed in transfected cells
T2 sequence (P08912 1-532): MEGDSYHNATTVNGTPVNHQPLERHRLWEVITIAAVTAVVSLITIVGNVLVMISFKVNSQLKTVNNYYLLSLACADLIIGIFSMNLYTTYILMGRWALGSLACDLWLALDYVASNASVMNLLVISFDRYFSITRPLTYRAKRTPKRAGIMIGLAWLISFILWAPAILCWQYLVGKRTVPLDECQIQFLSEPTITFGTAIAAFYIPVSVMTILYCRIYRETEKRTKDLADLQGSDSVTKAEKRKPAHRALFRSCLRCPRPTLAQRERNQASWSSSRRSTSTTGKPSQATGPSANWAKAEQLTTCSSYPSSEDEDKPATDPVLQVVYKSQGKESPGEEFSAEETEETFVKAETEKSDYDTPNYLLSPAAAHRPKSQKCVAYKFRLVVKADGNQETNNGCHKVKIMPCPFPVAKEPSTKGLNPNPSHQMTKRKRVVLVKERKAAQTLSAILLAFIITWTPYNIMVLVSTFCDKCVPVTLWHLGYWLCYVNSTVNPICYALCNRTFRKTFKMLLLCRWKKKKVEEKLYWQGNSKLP
Description: Agonist-induced hydrolysis of inositol phospholipids (PI hydrolysis) in CHO-K1 cells expressing m5. Format: cell-based. The settings on record: for Emax: CHO-K1, 0.5 h; for EC50: CHO-K1 m5 cells, EC50 calculated as 50% of the maximum response of the PI hydrolysis, read-out: POTENCY ON PI HYDROLYSIS, EC 50, m5 cells; for m3/m5 ratio: ratio of EC50 at m3 to EC50 at m5, 30 min. The procedure: as §1, §2

Series [3] in a line: Test for lowering IOP and miosis. Format: in vivo. The settings on record: for IOP-lowering: in vivo; for miosis: side effect when tested for lowering IOP.
The mark [4] stands for this setting: read-out: MAXIMUM RESPONSE BY MUSCARINIC AGONISTS, m5 cells, read-out: MAXIMUM RESPONSE BY […] AGONISTS, m5 cells.

SMILES strings stand for the structures. Read-outs that look alike come from different tables or passages of the source.

T1 sequence (P20309 whole entry): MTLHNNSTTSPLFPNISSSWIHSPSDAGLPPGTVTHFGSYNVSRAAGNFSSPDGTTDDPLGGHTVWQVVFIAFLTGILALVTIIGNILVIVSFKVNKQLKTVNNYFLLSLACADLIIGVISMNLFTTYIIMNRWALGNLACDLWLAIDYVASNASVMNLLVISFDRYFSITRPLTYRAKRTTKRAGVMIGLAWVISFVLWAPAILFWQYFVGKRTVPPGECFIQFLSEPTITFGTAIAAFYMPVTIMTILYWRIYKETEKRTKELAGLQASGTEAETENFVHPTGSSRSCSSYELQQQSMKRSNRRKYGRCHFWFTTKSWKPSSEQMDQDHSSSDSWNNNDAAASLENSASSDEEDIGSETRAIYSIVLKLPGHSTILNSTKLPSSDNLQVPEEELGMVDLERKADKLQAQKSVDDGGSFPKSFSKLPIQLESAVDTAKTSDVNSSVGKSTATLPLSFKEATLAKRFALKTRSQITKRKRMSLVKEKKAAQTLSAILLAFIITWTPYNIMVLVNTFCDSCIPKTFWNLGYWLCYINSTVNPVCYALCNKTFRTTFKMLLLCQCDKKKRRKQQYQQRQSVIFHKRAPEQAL

Turning to `CC[C@H]1C(=O)NC[C@@H]1Cc1cncn1C` [AGN 190456, 3R, 4R-ethyl-[(1-methyl-1H-imidazol-5-yl)methyl]-2-pyrrolidinone], in series [1], the Emax is 70 ± 7% and the EC50 is 20000 nM. Further, the Emax in series [2] (setting [4]) is 84 ± 11%. Besides, in series [2], the EC50 is 5000 nM and the m3/m5 ratio was 4. Further, in series [3], the IOP-lowering result was “effective” and the miosis result is given as “minimal miosis”.

In the case of `CC(=O)N(C)C(C)C#CCN1CCCC1` (centres unmarked) [BM-5, N-Methyl-N-(1-methyl-4-pyrrolidino-2-butynyl)acetamide], in series [1], the Emax is 30 ± 3% and the EC50 is 300 nM. In addition, the Emax in series [2] (setting [4]) is 30 ± 2%. Also, the Emax in series [2] (read-out: hydrolysis elicited relative to carbachol at the m5 receptor) was found to be 30%. In addition, in series [2], the EC50 is 60 nM and the m3/m5 ratio is recorded as 5. Moreover, in series [3], the IOP-lowering result was “IOP-lowering” and the miosis entry is recorded as “miosis”.

Consider `CC1CCC(=O)N1CC#CCN1CCC1` (centres unmarked) [BR-370, N-(4-Azetidinyl-2-butynyl)-5-methyl-2-pyrrolidone], for which the Emax in series [1] came out at 96 ± 40%; in series [2] (read-out: MAXIMUM RESPONSE BY MUSCARINIC AGONISTS, m5 cells), 110 ± 8%. Besides, the results for the EC50 in series [1] and in series [2] were 800 nM and 700 nM, respectively.

As for `C[N+](C)(C)CCOC(N)=O` [CARBACHOL, carbachol], in series [2] (setting [4]), the Emax is 100%.
